ChEMBL document CHEMBL1146646, “Benzimidazoles as new potent and selective DP antagonists for the treatment of allergic rhinitis” (Bioorg Med Chem Lett, 2004)
pKi: −log10 of the molar value.

Legend:
[1] = target: T1, Prostaglandin D2 receptor (Homo sapiens, UniProt Q13258); assay: Binding affinity against human recombinant […] D2 in presence of 0.5% human serum albumin
T1 sequence (Q13258 whole entry): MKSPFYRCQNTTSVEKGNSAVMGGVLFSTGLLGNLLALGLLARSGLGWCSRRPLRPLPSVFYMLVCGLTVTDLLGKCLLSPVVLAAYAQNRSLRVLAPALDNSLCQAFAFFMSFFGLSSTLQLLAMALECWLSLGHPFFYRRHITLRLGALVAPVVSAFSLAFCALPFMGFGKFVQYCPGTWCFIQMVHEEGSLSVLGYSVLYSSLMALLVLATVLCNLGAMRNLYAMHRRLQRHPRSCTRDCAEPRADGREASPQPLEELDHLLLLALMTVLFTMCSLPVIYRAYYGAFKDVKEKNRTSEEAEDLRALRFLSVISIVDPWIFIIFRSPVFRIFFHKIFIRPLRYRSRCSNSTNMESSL

[2] = target: T2, Thromboxane A2 receptor (Homo sapiens, UniProt P21731); assay: Binding affinity against human recombinant Thromboxane A2 receptor was determined using radioligand competition binding assay
T2 sequence (P21731 whole entry): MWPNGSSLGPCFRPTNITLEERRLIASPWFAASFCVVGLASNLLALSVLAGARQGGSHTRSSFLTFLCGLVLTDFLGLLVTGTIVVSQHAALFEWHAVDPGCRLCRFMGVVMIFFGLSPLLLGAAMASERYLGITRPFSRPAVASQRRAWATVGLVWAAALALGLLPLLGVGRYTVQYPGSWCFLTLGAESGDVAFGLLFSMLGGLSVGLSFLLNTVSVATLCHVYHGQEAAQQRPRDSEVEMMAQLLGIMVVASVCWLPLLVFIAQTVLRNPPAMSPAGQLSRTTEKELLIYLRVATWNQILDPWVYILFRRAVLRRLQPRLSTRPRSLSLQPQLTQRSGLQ

[3] = target: T1, Prostaglandin D2 receptor; assay: Binding affinity against human recombinant […] D2 was determined using radioligand competition binding assay

pKi [1] | pKi [2] | pKi [3] | Structure (SMILES)
< 4.92 | 5.40 | 5.21 | COC(=O)c1ccc(Cc2nc3ccccc3n2Cc2ccc(Cl)cc2)cc1
6.86 | 5.66 | 7.62 | COC(=O)c1ccc(CCc2nc3ccccc3n2Cc2ccc(Cl)cc2)cc1
– | 5.70 | 6.10 | CN(C)C(=O)c1ccc(CSc2nc3ccccc3n2Cc2ccc(Cl)cc2)cc1
5.27 | 6.05 | 5.82 | COC(=O)c1ccc(Nc2nc3ccccc3n2Cc2ccc(Cl)cc2)cc1
5.82 | 5.51 | 6.26 | COC(=O)c1ccc(C[S+]([O-])c2nc3ccccc3n2Cc2ccc(Cl)cc2)cc1 (configuration not stated)
– | 5.33 | 5.46 | O=C(O)c1ccc(CSc2nc3ccccc3n2Cc2ccc(Cl)cc2)cc1
6.10 | 5.15 | 5.10 | COC(=O)c1ccc(-c2nc3ccccc3n2Cc2ccc(Cl)cc2)cc1
– | 5.42 | 6.52 | CC(=O)c1ccc(CSc2nc3ccccc3n2Cc2ccc(Cl)cc2)cc1
7.17 | < 4.12 | 7.42 | COC(=O)c1ccc(/C=C/c2nc3ccccc3n2Cc2ccc(Cl)cc2)cc1
– | 5.22 | 5.96 | COC(=O)c1ccc(CNc2nc3ccccc3n2Cc2ccc(Cl)cc2)cc1
6.53 | 5.04 | 7.14 | COC(=O)c1ccc(CSc2nc3ccccc3n2Cc2ccc(Cl)cc2)cc1
– | 5.03 | 5.96 | COC(=O)c1cccc(CSc2nc3ccccc3n2Cc2ccc(Cl)cc2)c1

The next lines start with the compound.

Structure (SMILES) | pKi [1] | pKi [2] | pKi [3]
Cc1nc(-c2ccc(CSc3nc4ccccc4n3Cc3ccc(Cl)cc3)cc2)no1 | – | < 4.13 | 7.02
FC(F)(F)c1ccc(CSc2nc3ccccc3n2Cc2ccc(Cl)cc2)cc1 | – | < 4.14 | 5.59
Fc1ccc(CSc2nc3ccccc3n2Cc2ccc(Cl)cc2)cc1 | – | 5.21 | < 4.38
CS(=O)(=O)c1ccc(CSc2nc3ccccc3n2Cc2ccc(Cl)cc2)cc1 | – | 5.70 | 5.96
Cc1noc(-c2ccc(CSc3nc4ccccc4n3Cc3ccc(Cl)cc3)cc2)n1 | – | < 4.13 | 6.51
CC(C)(O)c1ccc(CSc2nc3ccccc3n2Cc2ccc(Cl)cc2)cc1 | – | 4.92 | 6.85
CCOC(=O)c1cc(CSc2nc3ccccc3n2Cc2ccc(Cl)cc2)cc(C(=O)OCC)c1 | – | < 4.15 | < 4.37
COC(=O)Cc1ccc(CSc2nc3ccccc3n2Cc2ccc(Cl)cc2)cc1 | – | 5.82 | 6.48
Clc1ccc(Cn2c(SCc3ccccc3)nc3ccccc32)cc1 | – | 5.38 | 5.17
NS(=O)(=O)c1ccc(CSc2nc3ccccc3n2Cc2ccc(Cl)cc2)cc1 | – | < 4.15 | 5.92
CSc1ccc(CSc2nc3ccccc3n2Cc2ccc(Cl)cc2)cc1 | – | < 4.14 | 6.26
N#Cc1ccc(CSc2nc3ccccc3n2Cc2ccc(Cl)cc2)cc1 | – | 6.02 | 5.38
CC(O)c1ccc(CSc2nc3ccccc3n2Cc2ccc(Cl)cc2)cc1 (configuration not stated) | – | 5.82 | 6.57
